This is an account of results in ChEMBL document CHEMBL5523740, “Discovery of Potent and Selective c-Met Degraders for Hepatocellular Carcinoma Treatment” (J Med Chem, 2024).

Data set [1] deals with MHCC97H. The data set can be described thus: Antiproliferative activity against human MHCC97H cells incubated for 24 hrs by CCK8 assay. In kind it is functional, cell-based. A general note: Tetrazolium assays rely on reduction of a dye to a coloured formazan, in cell work by metabolically active cells.
Data set [2] addresses Hepatocyte growth factor receptor (Homo sapiens, UniProt P08581). The data set can be described thus: Induction of c-Met degradation in human MHCC97H cells at 1 uM incubated for 24 hrs by Western blotting analysis. In kind it is cell-based. (In general: In western blotting, separated proteins are transferred to a membrane and probed.)
Data set [3] has as its system MHCC97H. The data set can be described thus: Induction of cell cycle arrest in human MHCC97H cells assessed as accumulation of cells at G1 phase at 3 nM incubated for 24 hrs by PI staining based flow cytometry analysis (reference value: 70.4%). The format is functional.
Data set [4] deals with MHCC97H. As to the kind of experiment: Induction of cell cycle arrest in human MHCC97H cells assessed as accumulation of cells at G2 phase at 3 nM incubated for 24 hrs by PI staining based flow cytometry analysis (reference value: 19.1%). In kind it is functional.
Data set [5] has as its system MHCC97H. The data set can be described thus: Induction of apoptosis in human MHCC97H cells assessed as viable cells at 3 nM incubated for 24 hrs by Annexin-V-FITC/PI staining based flow cytometry analysis (reference value: 86.3%). In kind it is functional. Conditions: read-out: Activity.
In data set [6] the test system is MHCC97H. The data set can be described thus: Induction of apoptosis in human MHCC97H cells assessed as early apoptotic cells at 3 nM incubated for 24 hrs by Annexin-V-FITC/PI staining based flow cytometry analysis (reference value: 7.70%). In kind it is functional. (In flow cytometry, cells or beads pass a laser one at a time.)
Data set [7] has as its system MHCC97H. As to the kind of experiment: Induction of apoptosis in human MHCC97H cells assessed as late apoptotic cells at 3 nM incubated for 24 hrs by Annexin-V-FITC/PI staining based flow cytometry analysis (reference value: 4.24%). The format is functional.
For data set [8], the system named is MHCC97H. The data set can be described thus: Induction of apoptosis in human MHCC97H cells assessed as necrotic cells at 3 nM incubated for 24 hrs by Annexin-V-FITC/PI staining based flow cytometry analysis (reference value: 1.77%). In kind it is functional.
The subject of data set [9] is MHCC97H. The data set can be described thus: Antitumor activity against human MHCC97H cells xenografted in BALB/c mouse assessed as tumor growth inhibition at 20 mg/kg, po qd for 22 days and measured every 2 days. Conditions: 528 h, time 22 day, read-out: TGI. The format is functional.
The nature of data set [10]: Toxicity in BALB/c mouse xenografted with human MHCC97H cells assessed as reduction in body weight at 20 mg/kg, po qd for 22 days and measured every 2 days. Conditions: in vivo, 528 h, time 22 day. The format is organism-based.
Data set [11] can be described thus: Toxicity in BALB/c mouse xenografted with human MHCC97H cells assessed as liver lesions at 20 mg/kg, po qd for 22 days and measured every 2 days by H and E staining based assay. In kind it is organism-based. As to conditions: in vivo, 528 h, time 22 day.
Data set [12] can be described thus: Toxicity in BALB/c mouse xenografted with human MHCC97H cells assessed as spleen lesions at 20 mg/kg, po qd for 22 days and measured every 2 days by H and E staining based assay. The format is organism-based. As to conditions: in vivo, 528 h, time 22 day.
The nature of data set [13]: Toxicity in BALB/c mouse xenografted with human MHCC97H cells assessed as lung lesions at 20 mg/kg, po qd for 22 days and measured every 2 days by H and E staining based assay. The format is organism-based. As to conditions: in vivo, 528 h, time 22 day.
The nature of data set [14]: Toxicity in BALB/c mouse xenografted with human MHCC97H cells assessed as kidney lesions at 20 mg/kg, po qd for 22 days and measured every 2 days by H and E staining based assay. The format is organism-based. As to conditions: in vivo, 528 h, time 22 day.
Data set [15] is described as follows: Toxicity in BALB/c mouse xenografted with human MHCC97H cells assessed as heart lesions at 20 mg/kg, po qd for 22 days and measured every 2 days by H and E staining based assay. The format is organism-based. As to conditions: in vivo, 528 h, time 22 day.
In data set [16] the test system is BaF3. As to the kind of experiment: Antiproliferative activity against mouse BaF3 cells harboring TPR-MET fusion protein incubated for 72 hrs by CellTiter-Glo reagent based assay. In kind it is functional, cell-based. Conditions: BaF3, 72 h.
In data set [17] the test system is BaF3. The data set can be described thus: Antiproliferative activity against mouse BaF3 cells harboring TPR-MET D1228N mutant fusion protein incubated for 72 hrs by CellTiter-Glo reagent based assay. The format is functional, cell-based. Conditions: BaF3, 72 h.
Data set [18] has as its system BaF3. The data set can be described thus: Antiproliferative activity against mouse BaF3 cells harboring TPR-MET Y1230H mutant fusion protein incubated for 72 hrs by CellTiter-Glo reagent based assay. In kind it is functional, cell-based. As to conditions: BaF3, 72 h.

Chain of Hepatocyte growth factor receptor (P08581 whole entry): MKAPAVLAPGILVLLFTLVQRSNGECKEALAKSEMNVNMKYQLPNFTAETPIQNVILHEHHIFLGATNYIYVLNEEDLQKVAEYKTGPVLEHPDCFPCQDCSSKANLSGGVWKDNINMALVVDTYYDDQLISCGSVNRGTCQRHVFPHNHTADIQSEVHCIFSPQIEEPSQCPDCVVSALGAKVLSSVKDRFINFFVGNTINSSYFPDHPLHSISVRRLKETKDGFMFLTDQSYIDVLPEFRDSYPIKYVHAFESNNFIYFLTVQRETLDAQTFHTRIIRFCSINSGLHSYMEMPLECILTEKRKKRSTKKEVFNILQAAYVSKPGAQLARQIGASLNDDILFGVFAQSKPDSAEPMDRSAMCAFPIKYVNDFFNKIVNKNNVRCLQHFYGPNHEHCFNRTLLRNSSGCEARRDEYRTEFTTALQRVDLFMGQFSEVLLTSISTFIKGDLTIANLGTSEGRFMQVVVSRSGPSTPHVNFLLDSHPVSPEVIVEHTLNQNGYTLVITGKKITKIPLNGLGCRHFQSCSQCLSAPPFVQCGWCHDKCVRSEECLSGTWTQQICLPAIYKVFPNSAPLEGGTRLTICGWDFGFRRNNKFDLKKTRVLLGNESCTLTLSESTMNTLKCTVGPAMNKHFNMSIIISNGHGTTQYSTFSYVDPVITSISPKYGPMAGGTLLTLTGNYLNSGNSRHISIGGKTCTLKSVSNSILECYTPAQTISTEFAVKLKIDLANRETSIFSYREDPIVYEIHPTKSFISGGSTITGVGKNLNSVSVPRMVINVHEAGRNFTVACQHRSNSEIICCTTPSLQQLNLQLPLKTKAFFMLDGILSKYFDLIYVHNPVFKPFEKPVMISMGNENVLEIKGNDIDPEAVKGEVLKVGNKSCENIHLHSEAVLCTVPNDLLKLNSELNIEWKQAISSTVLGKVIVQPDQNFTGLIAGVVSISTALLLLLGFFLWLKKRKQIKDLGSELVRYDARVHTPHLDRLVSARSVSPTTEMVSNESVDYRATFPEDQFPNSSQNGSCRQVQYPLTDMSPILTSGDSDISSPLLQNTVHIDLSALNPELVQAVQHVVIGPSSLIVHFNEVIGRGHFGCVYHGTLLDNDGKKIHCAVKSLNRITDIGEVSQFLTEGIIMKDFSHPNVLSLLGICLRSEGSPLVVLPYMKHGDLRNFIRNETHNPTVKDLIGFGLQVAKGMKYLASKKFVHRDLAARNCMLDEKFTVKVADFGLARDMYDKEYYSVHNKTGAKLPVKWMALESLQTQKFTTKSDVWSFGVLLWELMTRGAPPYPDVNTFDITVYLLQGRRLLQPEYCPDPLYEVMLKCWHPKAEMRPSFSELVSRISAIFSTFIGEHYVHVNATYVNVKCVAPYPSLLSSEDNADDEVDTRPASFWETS

In general, IC50 refers to the concentration needed to halve the response being measured. The low end stands for inhibition by little substance, the high end for a need for much substance. Turning to `N#Cc1cccc(-c2ccc(=O)n(Cc3cccc(-c4ncc(OCC5CCN(CCNC(=O)CC67CC8CC(CC(C8)C6)C7)CC5)cn4)c3)n2)c1`, in data set [1], inhibition was half-maximal at 22.9 nM (IC50). The Activity in [2] turned out to be 11.1%.
In turn, `CC(C)[C@@H]1CC[C@@H](C)C[C@H]1OCC(=O)N1CCC(COc2cnc(-c3cccc(Cn4nc(-c5cccc(C#N)c5)ccc4=O)c3)nc2)CC1` showed an IC50 in data set [1] of 258 nM. The molecule also registered an Activity in [2] of 35.8%.
The like results for `N#Cc1cccc(-c2ccc(=O)n(Cc3cccc(-c4ncc(OCC5CCN(CC(=O)NCCCCNC(=O)CC67CC8CC(CC(C8)C6)C7)CC5)cn4)c3)n2)c1` were, in that order, 139 nM and < 10%.
The matching figures for `N#Cc1cccc(-c2ccc(=O)n(Cc3cccc(-c4ncc(OCC5CCN(CC(=O)NCCCCCCCCNC(=O)CC67CC8CC(CC(C8)C6)C7)CC5)cn4)c3)n2)c1`: 156 nM and < 10%.
The like results for `N#Cc1cccc(-c2ccc(=O)n(Cc3cccc(-c4ncc(OCC5CCN(C(=O)CC6c7ccccc7-c7ccccc76)CC5)cn4)c3)n2)c1` were, in that order, 935 nM and 15.8%.
In turn, `N#Cc1cccc(-c2ccc(=O)n(Cc3cccc(-c4ncc(OCC5CCN(CC(=O)NCCNC(=O)CC67CC8CC(CC(C8)C6)C7)CC5)cn4)c3)n2)c1` registered an IC50 in data set [1] of 40.2 nM. In data set [2], this molecule registered an Activity of 22.4%.
The matching figures for `N#Cc1cccc(-c2ccc(=O)n(Cc3cccc(-c4ncc(OCC5CCN(CC(=O)NCCCCCCCCCCNC(=O)CC67CC8CC(CC(C8)C6)C7)CC5)cn4)c3)n2)c1`: 155 nM and < 10%.
The matching figures for `N#Cc1cccc(-c2ccc(=O)n(Cc3cccc(-c4ncc(OCC5CCN(CC(=O)NCC6CC7C=CC6C7)CC5)cn4)c3)n2)c1` (stereo unspecified): 73.6 nM and 50.2%.
The like results for `N#Cc1cccc(-c2ccc(=O)n(Cc3cccc(-c4ncc(OCC5CCN(C(=O)CC(c6ccccc6)c6ccccc6)CC5)cn4)c3)n2)c1` were, in that order, 128 nM and < 10%.
In turn, `N#Cc1cccc(-c2ccc(=O)n(Cc3cccc(-c4ncc(OCC5CCN(C(=O)CC67CC8CC(CC(C8)C6)C7)CC5)cn4)c3)n2)c1` returned an IC50 in [1] of 67.2 nM. This molecule also showed an Activity in [2] of 67.4%.
In the case of `CN1CCC(COc2cnc(-c3cccc(Cn4nc(-c5cccc(C#N)c5)ccc4=O)c3)nc2)CC1` [TEPOTINIB], the IC50 in data set [1] turned out to be 3.66 nM; in [16], 5.3 nM; in data set [17], 2030 nM; in [18], 1840 nM. Besides, the Activity in [3] is listed as 73.7%; in data set [4] it was 16.6%; in [6], 13.9%; in data set [7] it was 3.84%; in [8], 2.57%; in data set [10], “Non-Toxic”. Besides, the Activity entry in data set [11], in data set [12], in [13], in data set [14] and in data set [15] was “Non-Toxic” each time. Also, in [5], the viability at 0.003 µM was found to be 79.6%. Further, the inhibition in vivo at 20 mg/kg in [9] came out at 58.8%.
Take `N#Cc1cccc(-c2ccc(=O)n(Cc3cccc(-c4ncc(OCC5CCN(CCCC(=O)NCC67CC8CC(CC(C8)C6)C7)CC5)cn4)c3)n2)c1`: in data set [1], inhibition was half-maximal at 11.8 nM (IC50). Moreover, the Activity in [2] amounted to 40.5%.
The matching figures for `N#Cc1cccc(-c2ccc(=O)n(Cc3cccc(-c4ncc(OCC5CCN(CC(=O)NCCCCCCNC(=O)CC67CC8CC(CC(C8)C6)C7)CC5)cn4)c3)n2)c1`: 200 nM and < 10%.
